According to the NIST ThermoML archive (doi:10.1021/je060139a):

How the values were obtained:
[1] = xn = mol fraction of the nth substance listed; conditions: Wilhelmy plate method
[2] = refractive index (Na D-line) (dimensionless); xn = mol fraction of the nth substance listed; conditions: 100.5 kPa, Liquid, Standard Abbe refractometry

CCOC(=O)c1ccccc1O [ethyl 2-hydroxybenzoate] + CCO
Conditions | refractive index, 288.15 K | refractive index, 298.18 K | refractive index, 308.15 K | refractive index, 318.15 K | surface tension liquid-gas, 288.15 K [mN/m] | surface tension liquid-gas, 298.18 K [mN/m] | surface tension liquid-gas, 308.15 K [mN/m] | surface tension liquid-gas, 318.15 K [mN/m]
[1], x1 = 0.05 | – | – | – | – | 24 | 23.17 | 22.27 | 21.3
[1], x1 = 0.1 | – | – | – | – | 24.8 | 23.9 | 22.94 | 21.97
[1], x1 = 0.15 | – | – | – | – | 25.5 | 24.55 | 23.55 | 22.57
[1], x1 = 0.2 | – | – | – | – | 26.1 | 25.14 | 24.13 | 23.17
[1], x1 = 0.25 | – | – | – | – | 26.65 | 25.65 | 24.67 | 23.7
[1], x1 = 0.3 | – | – | – | – | 27.2 | 26.15 | 25.17 | 24.2
[1], x1 = 0.35 | – | – | – | – | 27.7 | 26.65 | 25.62 | 24.67
[1], x1 = 0.4 | – | – | – | – | 28.1 | 27.1 | 26.08 | 25.17
[1], x1 = 0.45 | – | – | – | – | 28.6 | 27.55 | 26.58 | 25.7
[1], x1 = 0.5 | – | – | – | – | 29.13 | 28.1 | 27.12 | 26.25
[1], x1 = 0.55 | – | – | – | – | 29.71 | 28.66 | 27.68 | 26.8
[1], x1 = 0.6 | – | – | – | – | 30.33 | 29.25 | 28.26 | 27.38
[1], x1 = 0.65 | – | – | – | – | 31 | 29.9 | 28.9 | 28
[1], x1 = 0.7 | – | – | – | – | 31.7 | 30.6 | 29.56 | 28.67
[1], x1 = 0.75 | – | – | – | – | 32.5 | 31.38 | 30.3 | 29.4
[1], x1 = 0.8 | – | – | – | – | 33.4 | 32.25 | 31.13 | 30.2
[1], x1 = 0.85 | – | – | – | – | 34.4 | 33.18 | 32.03 | 31.1
[1], x1 = 0.9 | – | – | – | – | 35.4 | 34.18 | 33.03 | 32.18
[1], x1 = 0.95 | – | – | – | – | 36.4 | 35.17 | 34.07 | 33.2
[1], x1 = 1 | – | – | – | – | 37.5 | 36.3 | 35.2 | 34.4
[2], x1 = 0.05 | 1.38326 | 1.37908 | 1.37478 | 1.37068 | – | – | – | –
[2], x1 = 0.1 | 1.40028 | 1.39599 | 1.39159 | 1.38739 | – | – | – | –
[2], x1 = 0.15 | 1.41504 | 1.41072 | 1.40628 | 1.40202 | – | – | – | –
[2], x1 = 0.2 | 1.42788 | 1.42347 | 1.41902 | 1.4147 | – | – | – | –
[2], x1 = 0.25 | 1.43914 | 1.43468 | 1.4302 | 1.4258 | – | – | – | –
[2], x1 = 0.3 | 1.44918 | 1.44465 | 1.44012 | 1.43567 | – | – | – | –
[2], x1 = 0.35 | 1.4582 | 1.45364 | 1.44908 | 1.44456 | – | – | – | –
[2], x1 = 0.4 | 1.46635 | 1.46177 | 1.45719 | 1.45266 | – | – | – | –
[2], x1 = 0.45 | 1.47375 | 1.46918 | 1.46462 | 1.46008 | – | – | – | –
[2], x1 = 0.5 | 1.48051 | 1.47593 | 1.47139 | 1.46685 | – | – | – | –
[2], x1 = 0.55 | 1.4867 | 1.48212 | 1.4776 | 1.47306 | – | – | – | –
[2], x1 = 0.6 | 1.49239 | 1.48782 | 1.48328 | 1.47873 | – | – | – | –
[2], x1 = 0.65 | 1.49763 | 1.49304 | 1.48852 | 1.48397 | – | – | – | –
[2], x1 = 0.7 | 1.50246 | 1.49784 | 1.49331 | 1.48874 | – | – | – | –
[2], x1 = 0.75 | 1.50695 | 1.50232 | 1.49779 | 1.49321 | – | – | – | –
[2], x1 = 0.8 | 1.51112 | 1.50649 | 1.50196 | 1.49738 | – | – | – | –
[2], x1 = 0.85 | 1.51498 | 1.51035 | 1.50582 | 1.50123 | – | – | – | –
[2], x1 = 0.9 | 1.51852 | 1.51391 | 1.50938 | 1.50479 | – | – | – | –
[2], x1 = 0.95 | 1.52184 | 1.51723 | 1.51272 | 1.50814 | – | – | – | –
[2], x1 = 1 | 1.52481 | 1.52022 | 1.51573 | 1.51116 | – | – | – | –

CCOC(=O)CC(C)C [ethyl 3-methylbutanoate] + CCO
Conditions | refractive index, [2] | surface tension liquid-gas, [1] [mN/m]
288.15 K, x1 = 0.05 | 1.3677 | 23.14
288.15 K, x1 = 0.1 | 1.37142 | 23.26
288.15 K, x1 = 0.15 | 1.37464 | 23.37
288.15 K, x1 = 0.2 | 1.37745 | 23.46
288.15 K, x1 = 0.25 | 1.37993 | 23.55
288.15 K, x1 = 0.3 | 1.38213 | 23.62
288.15 K, x1 = 0.35 | 1.3841 | 23.69
288.15 K, x1 = 0.4 | 1.38587 | 23.76
288.15 K, x1 = 0.45 | 1.38748 | 23.82
288.15 K, x1 = 0.5 | 1.38894 | 23.88
288.15 K, x1 = 0.55 | 1.39028 | 23.93
288.15 K, x1 = 0.6 | 1.39151 | 23.99
288.15 K, x1 = 0.65 | 1.39264 | 24.04
288.15 K, x1 = 0.7 | 1.39369 | 24.09
288.15 K, x1 = 0.75 | 1.39467 | 24.15
288.15 K, x1 = 0.8 | 1.39559 | 24.2
288.15 K, x1 = 0.85 | 1.39646 | 24.25
288.15 K, x1 = 0.9 | 1.39729 | 24.3
288.15 K, x1 = 0.95 | 1.39807 | 24.35
288.15 K, x1 = 1 | 1.3988 | 24.4
298.18 K, x1 = 0.05 | 1.36363 | 22.4
298.18 K, x1 = 0.1 | 1.36724 | 22.5
298.18 K, x1 = 0.15 | 1.37038 | 22.58
298.18 K, x1 = 0.2 | 1.37312 | 22.66
298.18 K, x1 = 0.25 | 1.37554 | 22.73
298.18 K, x1 = 0.3 | 1.37769 | 22.79
298.18 K, x1 = 0.35 | 1.37961 | 22.85
298.18 K, x1 = 0.4 | 1.38134 | 22.91
298.18 K, x1 = 0.45 | 1.38291 | 22.96
298.18 K, x1 = 0.5 | 1.38434 | 23
298.18 K, x1 = 0.55 | 1.38564 | 23.05
298.18 K, x1 = 0.6 | 1.38684 | 23.1
298.18 K, x1 = 0.65 | 1.38795 | 23.15
298.18 K, x1 = 0.7 | 1.38897 | 23.2
298.18 K, x1 = 0.75 | 1.38993 | 23.26
298.18 K, x1 = 0.8 | 1.39083 | 23.31
298.18 K, x1 = 0.85 | 1.39169 | 23.35
298.18 K, x1 = 0.9 | 1.3925 | 23.4
298.18 K, x1 = 0.95 | 1.39328 | 23.45
298.18 K, x1 = 1 | 1.39401 | 23.5
308.15 K, x1 = 0.05 | 1.35942 | 21.57
308.15 K, x1 = 0.1 | 1.36295 | 21.64
308.15 K, x1 = 0.15 | 1.36603 | 21.7
308.15 K, x1 = 0.2 | 1.36872 | 21.76
308.15 K, x1 = 0.25 | 1.3711 | 21.81
308.15 K, x1 = 0.3 | 1.37321 | 21.86
308.15 K, x1 = 0.35 | 1.3751 | 21.91
308.15 K, x1 = 0.4 | 1.3768 | 21.96
308.15 K, x1 = 0.45 | 1.37834 | 22
308.15 K, x1 = 0.5 | 1.37974 | –
308.15 K, x1 = 0.55 | 1.38102 | 22.04
308.15 K, x1 = 0.6 | 1.3822 | 22.08
308.15 K, x1 = 0.65 | 1.38329 | 22.13
308.15 K, x1 = 0.7 | 1.3843 | 22.17
308.15 K, x1 = 0.75 | 1.38524 | 22.22
308.15 K, x1 = 0.8 | 1.38613 | 22.27
308.15 K, x1 = 0.85 | 1.38698 | 22.31
308.15 K, x1 = 0.9 | 1.38779 | 22.36
308.15 K, x1 = 0.95 | 1.38857 | 22.41
308.15 K, x1 = 1 | 1.38931 | 22.45
318.15 K, x1 = 0.05 | 1.35545 | 20.65
318.15 K, x1 = 0.1 | 1.35888 | 20.72
318.15 K, x1 = 0.15 | 1.36186 | 20.78
318.15 K, x1 = 0.2 | 1.36447 | 20.83
318.15 K, x1 = 0.25 | 1.36679 | 20.88
318.15 K, x1 = 0.3 | 1.36884 | 20.94
318.15 K, x1 = 0.35 | 1.37068 | 20.99
318.15 K, x1 = 0.4 | 1.37233 | 21.03
318.15 K, x1 = 0.45 | 1.37383 | 21.08
318.15 K, x1 = 0.5 | 1.37519 | 21.12
318.15 K, x1 = 0.55 | 1.37644 | 21.17
318.15 K, x1 = 0.6 | 1.37759 | 21.21
318.15 K, x1 = 0.65 | 1.37865 | 21.26
318.15 K, x1 = 0.7 | 1.37964 | 21.3
318.15 K, x1 = 0.75 | 1.38056 | 21.35
318.15 K, x1 = 0.8 | 1.38143 | 21.4
318.15 K, x1 = 0.85 | 1.38226 | 21.45
318.15 K, x1 = 0.9 | 1.38306 | 21.5
318.15 K, x1 = 0.95 | 1.38384 | 21.55
318.15 K, x1 = 1 | 1.38458 | 21.6
